Assay results taken from US11034839B2, “Compounds, linked with haptens, for the detection of senescent cells” (THE UNIVERSITY OF MANCHESTER, priority 2016, dated 2021).
Entries after “also recorded” stand apart in the source; their conditions may differ.

How the values were obtained:
lipofuscin = assay: Immunofluorescence staining / lipofuscin autofluorescence control; format: cell-based; settings: fluorescence microscopy, FIG. 9
Procedure: In inventive example 6 the derivative LG13 was used to detect lipofuscin rich cells in cell spreads from cell culture by immunofluorescence staining.
Immunofluorescence staining protocol cellsor ounted on coverslips • 1. Wash ×1 in TBS for 5 min at RT. • 2. Wash ×1 in EtOH 50% for 5 min at RT. • 3. Wash ×1 EtOH 70% for 5 min at RT. • 4. Incubate with the compound (LG13) at RT. A drop of freshly prepared compound (LG13) is placed on a clean slide with the use of a syringe that carrying a 2 mm filter (see also FIG. 1 from Evangelou & Gorgoulis, 2016). Then the cover-slip with the cells is turned down (using thin edged forceps) on the slide and attached on the dye drop in a way that the material faces down the drop on the slide (All incubations were performed in chambers (cover slips) and coplin jars (glass slides) to avoid exsiccation of the material), (see also FIG. 1 from Evangelou & Gorgoulis, 2016). • 5. The staining reaction is monitored under the light microscope until detection of the signal (average time 5-8 min). • 6. Wash ×2 in EtOH 50%. • 7. Repeat washing ×2 in fresh EtOH 50%. • 8. Wash ×2 in TBS for 30 sec and ×1 for 5 min at RT. • 9. Incubate with 0.5% Triton X/TBS for 3 min at RT. • 10. Wash ×1 in TBS for 5 min at RT. • 11. […] Observe under the fluorescence microscope

[1] = system: human diploid lung fibroblasts (DLFs) and human bronchial epithelial cells (HBEC-Cdc6 Tet-ON); assay: IHC staining versus proliferation markers (Ki67 and BrdU incorporation); format: cell-based; settings: FIG. 16
[2] = system: senescent cells in induced Saos2-p21 cells and irradiated human diploid lung fibroblasts (DLFs); assay: Streptavidin-HRP/DAB labeling of cell spreads; format: cell-based; settings: cell spreads on cover slips, panels 6ai and 6bi
Procedure: In inventive example 3, the derivative […] was used to detect senescent cells in cell spreads using streptavidin-horse radish peroxidase (HRP)/DAB labeling.
Induced and non-induced Saos2-p21^WAF1/Cip1 […] cells as well as human lung fibroblasts (DLFs) non- and y-irradiated were grown on cover slips and collected before and after the mentioned respective treatments for induction of senescence. Cover slips were treated as follows: • a. Fixation in ice-cold ethanol or methanol for 4 min. • b. Blocking of endogenous peroxidase activity with 3% H2O2 for 10 min. • c. Quick wash in 50% (v/v) ethanol. • d. Application of LG13 dye, diluted in ethanol and filtered, on cells for 10 min. • e. Quick wash in 50% (v/v) ethanol. • f. Transfer and wash in TBS or PBS solution. • g. Incubation in streptavidin-HRP (horse radish peroxidase) conjugated (dilution 1/200), for ½ hr at room temperature. • h. Quick wash in TBS or PBS solution. • i. Staining with 3,3′-Diaminobenzidine (DAB) solution (dilution 1/300 in TBS or PBS) for 1 min at room temperature. • j. Counterstain with Nuclear Fast Red, followed by mounting with glycerol and sealing with a cover slip. • k. Microscopy observation.

senescent cells = assay: Flow cytometry analysis for detection of senescent cells in cell culture; format: cell-based; settings: HIC assay adapted to flow cytometry, FIG. 10
Procedure: In inventive example 7 the derivative LG13 was used to detect lipofuscin rich cells in cell aspirations or cell cultures by flow cytometry analysis.
• 1. Cells harvested from culture are fixed in EtOH 70% at 4° C. • 2. Centrifuge at 1200 rpm for 5 min at RT. • 3. Wash ×1 in 5 ml PBS at RT. • 4. Centrifuge at 1200 rpm for 5 min at RT. • 5. Incubate in 0.1% Triton X/PBS for 15 min at RT. • 6. Centrifuge at 1200 rpm for 5 min at RT. • 7. Wash ×1 EtOH 50% for 5 min at RT • 8. Centrifuge at 1200 rpm for 5 min at RT. • 9. Wash ×1 EtOH 70% for 5 min at RT. • 10. Centrifuge at 1200 rpm for 5 min at RT. • 11. Cover cell pellet with compound LG13 and incubate for 8 min at RT. • 12. Centrifuge at 1200 rpm for 5 min at RT. • 13. Wash with EtOH 50% and centrifuge at 1200 rpm for 5 min at RT, repeat ×3. • 14. Wash ×1 in PBS. • 15. Centrifuge at 1200 rpm for 5 min at RT. • 16. Incubate with the primary anti-biotin antibody diluted 1:400 in PBS ([Hyb-8] ab201341, Abcam) for 60 min at 37° C. • 17. Wash ×1 with PBS. • 18. Centrifuge at 1200 rpm for 5 min at RT. • 19. Incubate with secondary antibody, goat anti-mouse 568 Alexa Fluor conjugated, diluted 1:100 in PBS [Thermo Fisher Scientific (Cat no: A-11004)] for 20-30 min in dark and on ice. • 20. Wash ×1 with PBS. • 21. Centrifuge at 1200 rpm for 5 min at RT.

[3] = system: HeLa cancer cells and near normal Li-Fraumeni fibroblasts; assay: False-positive studies (cell confluency, serum starvation); format: cell-based, human
Text: The in vitro models comprised seven cellular systems. […] The same cellular system was used at early passages that underwent SIPS upon y-irradiation and was compared in relation to non-irradiated counterparts. Another set of models comprised two inducible Saos2 Tet-ON osteosarcoma cell lines carrying p53 and p21^WAF1/Cip1, respectively, two well established effectors of senescence (Georgakopoulou et al., 2013; Galanos et al., 2016). Finally, the U2OS-E2F1 ER, U205-Cdt1 Tet-ON and HBECs-Cdc6 Tet-ON inducible systems that undergo SIPS due to oncogenic stress signals were also utilized (Petrakis et al., 2016; Liontos et al., 2007; Liontos et al., 2009). Parental cell lines were obtained either directly from ATCC or from collaborating laboratories that generated them. In addition, the human cancer cell line HeLa and near normal Li-Fraumeni fibroblasts (Galanos et al., 2016) were also employed as control cell lines for the specificity of staining of the SBB compounds.

Structure (SMILES): CC1(COC(=O)CCCC[C@H]2SC[C@H]3NC(=O)N[C@H]32)Nc2cccc3c(/N=N/c4ccc(/N=N/c5ccccc5)c5ccccc45)ccc(c23)N1 (stereo partly drawn) [LG13, (2-methyl-6-((E)-(4-((E)-phenyldiazenyl)naphthalen-1-yl)diazenyl)-2,3-dihydro-1H-perimidin-2-yl)methyl 5-((3aR,4R,6aS)-2-oxohexahydro-1H-thieno[3,4-d]imidazol-4-yl)pentanoate]
- effect of staining on lipofuscin autofluorescence (lipofuscin): quenched; also recorded: “masks” the autofluorescence ability of lipofuscin
- relationship between IHC staining and proliferation markers (Ki67 and BrdU incorporation) [1]: Inverse relationship
- colour of senescent cells after streptavidin-HRP/DAB detection [2]: clear dark-brown color
- detection of senescent cells by flow cytometry (senescent cells): detects robustly senescent cells
- staining under cell confluency ([3]; HeLa and Li-Fraumeni fibroblasts, FIG. 17): Negative
- staining of serum starved HeLa cells after formalin fixing and paraffin embedding ([3]; cell block, FIG. 18): negative
- false-positive staining due to serum starvation and cell confluency ([3]; compared with SA-b-gal, FIGS. 17 and 18): deprived of the false-positive staining disadvantages
- staining after serum starvation ([3]; in comparison to SA-β-gal that gave positive signal, FIG. 18): Negative
